Measurements: publication PMC10824666 (Nature Cancer, 2023)
Read-outs that look alike come from different tables or passages of the source. Each block holds one compound with its values, some of them ahead of it.

Legend:
Assay in all cases: biochemical
Parameters in all cases: Eurofins DiscoverX kinase panel, competitive binding assay at 1 uM, percent of DMSO control
Conditions in all cases: competitive binding, percent of DMSO control
[1] = target: BMPR1A (Homo sapiens, UniProt P36894)
Method in brief: (§1)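 Single-point profiling at 1 µM compound in a competition-binding format against 96 kinases, read out as POC relative to control; n = 1.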

[2] = target: Fyn (Homo sapiens, UniProt P06241)
Method in brief: as §1

[3] = target: T1, GRK1 (Homo sapiens, UniProt Q15835)
T1 sequence (Q15835 1-563): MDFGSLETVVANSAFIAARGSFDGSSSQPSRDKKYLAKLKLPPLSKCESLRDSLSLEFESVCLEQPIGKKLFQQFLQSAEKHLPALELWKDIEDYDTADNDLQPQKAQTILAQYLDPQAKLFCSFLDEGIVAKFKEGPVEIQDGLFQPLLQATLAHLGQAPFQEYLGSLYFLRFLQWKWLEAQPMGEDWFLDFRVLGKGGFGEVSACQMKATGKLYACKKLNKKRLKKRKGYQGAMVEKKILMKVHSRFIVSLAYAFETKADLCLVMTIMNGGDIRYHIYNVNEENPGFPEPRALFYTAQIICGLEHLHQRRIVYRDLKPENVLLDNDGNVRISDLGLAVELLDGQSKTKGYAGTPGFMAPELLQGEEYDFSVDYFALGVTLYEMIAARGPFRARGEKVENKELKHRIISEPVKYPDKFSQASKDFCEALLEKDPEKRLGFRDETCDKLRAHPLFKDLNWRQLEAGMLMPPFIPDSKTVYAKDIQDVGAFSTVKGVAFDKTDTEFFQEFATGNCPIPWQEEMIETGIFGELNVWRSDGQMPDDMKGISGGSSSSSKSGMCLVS
Method in brief: as §1

[4] = target: T2, IRAK 4 (Homo sapiens, UniProt Q9NWZ3)
T2 construct: gene IRAK4
T2 sequence (Q9NWZ3 1-460): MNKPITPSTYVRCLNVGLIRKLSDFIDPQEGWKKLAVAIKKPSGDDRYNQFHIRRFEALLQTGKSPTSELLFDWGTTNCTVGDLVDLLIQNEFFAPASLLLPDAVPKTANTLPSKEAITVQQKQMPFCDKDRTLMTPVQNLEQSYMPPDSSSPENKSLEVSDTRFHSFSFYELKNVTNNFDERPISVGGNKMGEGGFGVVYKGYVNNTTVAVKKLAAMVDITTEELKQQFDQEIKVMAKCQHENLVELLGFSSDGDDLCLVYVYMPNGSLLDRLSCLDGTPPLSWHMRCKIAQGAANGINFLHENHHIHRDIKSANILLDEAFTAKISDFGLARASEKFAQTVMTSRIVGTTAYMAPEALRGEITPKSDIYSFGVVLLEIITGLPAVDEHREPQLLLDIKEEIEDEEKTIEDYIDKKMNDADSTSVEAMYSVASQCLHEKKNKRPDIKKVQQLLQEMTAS
Method in brief: as §1

[5] = target: NEK6 (Homo sapiens, UniProt Q9HC98)
Method in brief: as §1

[6] = target: WEE1 (Homo sapiens, UniProt P30291)
Method in brief: as §1

[7] = read-out: Kinome Profiling performed by Eurofins DiscoverX / AM-0277, 1.0 µM / POC
[8] = read-out: Kinome Profiling performed by Eurofins DiscoverX / AM-1882, 1.0 µM / POC
[9] = read-out: Kinome Profiling performed by Eurofins DiscoverX / AM-5308, 1.0 µM / POC

Sequence of BMPR1A (P36894 whole entry): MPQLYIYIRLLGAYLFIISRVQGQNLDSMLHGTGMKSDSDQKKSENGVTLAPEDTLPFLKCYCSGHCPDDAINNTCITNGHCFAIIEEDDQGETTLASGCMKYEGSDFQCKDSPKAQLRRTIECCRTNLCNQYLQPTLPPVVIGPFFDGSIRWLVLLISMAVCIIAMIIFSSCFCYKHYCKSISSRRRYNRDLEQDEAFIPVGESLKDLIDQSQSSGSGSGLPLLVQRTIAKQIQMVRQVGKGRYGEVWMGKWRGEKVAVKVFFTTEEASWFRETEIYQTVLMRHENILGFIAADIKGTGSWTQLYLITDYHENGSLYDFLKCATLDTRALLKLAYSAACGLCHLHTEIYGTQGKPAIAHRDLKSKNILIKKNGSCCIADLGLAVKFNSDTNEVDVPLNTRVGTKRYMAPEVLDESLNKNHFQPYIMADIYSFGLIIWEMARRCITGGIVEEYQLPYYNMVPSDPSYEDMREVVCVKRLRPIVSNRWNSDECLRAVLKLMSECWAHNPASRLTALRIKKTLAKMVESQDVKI
Sequence of Fyn (P06241 whole entry): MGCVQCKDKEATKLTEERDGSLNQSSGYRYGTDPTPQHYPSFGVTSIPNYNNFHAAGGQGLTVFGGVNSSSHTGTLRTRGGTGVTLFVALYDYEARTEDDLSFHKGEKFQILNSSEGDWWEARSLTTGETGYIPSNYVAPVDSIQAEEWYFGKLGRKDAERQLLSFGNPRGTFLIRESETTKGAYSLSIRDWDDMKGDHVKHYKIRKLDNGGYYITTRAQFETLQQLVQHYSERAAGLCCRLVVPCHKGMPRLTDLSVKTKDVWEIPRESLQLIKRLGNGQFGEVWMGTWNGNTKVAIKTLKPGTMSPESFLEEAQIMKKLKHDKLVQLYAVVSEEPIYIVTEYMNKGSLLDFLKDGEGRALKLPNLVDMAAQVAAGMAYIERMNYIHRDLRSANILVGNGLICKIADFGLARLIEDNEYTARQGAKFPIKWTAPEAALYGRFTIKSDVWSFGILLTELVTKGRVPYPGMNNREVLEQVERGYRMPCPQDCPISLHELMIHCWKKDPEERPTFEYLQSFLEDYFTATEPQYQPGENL
Sequence of WEE1 (P30291 whole entry): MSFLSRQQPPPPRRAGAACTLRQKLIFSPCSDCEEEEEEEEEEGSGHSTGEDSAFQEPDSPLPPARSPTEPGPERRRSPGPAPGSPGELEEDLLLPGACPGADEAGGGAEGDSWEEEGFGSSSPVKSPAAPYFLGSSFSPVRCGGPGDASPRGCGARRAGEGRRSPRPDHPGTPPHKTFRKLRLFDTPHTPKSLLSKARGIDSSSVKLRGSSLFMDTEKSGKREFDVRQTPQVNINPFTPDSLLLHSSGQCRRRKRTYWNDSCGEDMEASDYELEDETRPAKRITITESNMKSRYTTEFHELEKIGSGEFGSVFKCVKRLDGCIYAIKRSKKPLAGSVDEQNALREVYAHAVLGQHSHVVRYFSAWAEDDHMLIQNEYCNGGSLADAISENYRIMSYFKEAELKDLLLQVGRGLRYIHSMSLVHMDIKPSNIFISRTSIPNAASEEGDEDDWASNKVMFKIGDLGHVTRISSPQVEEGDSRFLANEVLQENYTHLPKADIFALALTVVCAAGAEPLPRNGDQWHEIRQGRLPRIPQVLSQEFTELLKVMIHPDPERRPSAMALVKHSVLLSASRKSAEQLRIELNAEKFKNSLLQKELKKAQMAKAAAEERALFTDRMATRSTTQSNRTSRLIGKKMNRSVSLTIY
Sequence of NEK6 (Q9HC98 whole entry): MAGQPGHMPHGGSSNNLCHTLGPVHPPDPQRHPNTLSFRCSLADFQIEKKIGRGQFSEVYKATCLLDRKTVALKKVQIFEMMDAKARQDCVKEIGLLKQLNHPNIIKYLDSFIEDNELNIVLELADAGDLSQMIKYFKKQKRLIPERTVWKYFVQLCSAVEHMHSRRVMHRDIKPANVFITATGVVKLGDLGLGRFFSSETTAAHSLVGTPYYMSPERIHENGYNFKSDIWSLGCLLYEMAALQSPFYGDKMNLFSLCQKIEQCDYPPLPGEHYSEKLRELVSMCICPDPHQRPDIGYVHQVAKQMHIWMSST

- remaining activity at 1 µM [1, 7]: 100%
- remaining activity at 1 µM [2, 7]: 100%
- remaining activity at 1 µM [3, 7]: 81%
- remaining activity at 1 µM [4, 7]: 100%
- remaining activity at 1 µM [5, 7]: 94%
- remaining activity at 1 µM [6, 7]: 100%
Structure (SMILES): CC(C)(CO)Nc1ccc(C(=O)Nc2cccc(S(=O)(=O)C3CCCC3)c2)c(N2CCC3(CC2)CC3)n1 [AM-0277]

- remaining activity at 1 µM [1, 8]: 100%
- remaining activity at 1 µM [2, 8]: 85.5%
- remaining activity at 1 µM [3, 8]: 98.5%
- remaining activity at 1 µM [4, 8]: 80%
- remaining activity at 1 µM [5, 8]: 100%
- remaining activity at 1 µM [6, 8]: 50%
Structure (SMILES): CC(C)(C)NS(=O)(=O)c1cccc(NC(=O)c2ccc(S(=O)(=O)NC(C)(C)C)cc2N2CCC3(CC2)CC3)c1 [AM-1882]

- remaining activity at 1 µM [1, 9]: 93.5%
- remaining activity at 1 µM [2, 9]: 92%
- remaining activity at 1 µM [3, 9]: 91%
- remaining activity at 1 µM [4, 9]: 95.5%
- remaining activity at 1 µM [5, 9]: 95%
- remaining activity at 1 µM [6, 9]: 100%
Structure (SMILES): C[C@@H]1CN(c2cccc(NC(=O)c3ccc(NS(=O)(=O)CCO)cc3N3CCC4(CC3)CC4)n2)CCO1 [AM-5308]
